Assay results from ChEMBL document CHEMBL4609979, “Design of enkephalin modifications protected from brain extracellular peptidases providing long-term analgesia” (Bioorg Med Chem, 2020).
Active and inactive are the calls of the source. The rule behind the calls is not given here. Where a SMILES comes first, the peptide text is derived from it. [ ]: non-standard residue; d: D form. βAla = NCCC(=O)O

Columns and labels:
[1] = Stability in bovine brain synaptosomes assessed as compound remaining at 0.35 mM incubated for 3 hrs by thin layer chromatography analysis; type: ADME, subcellular, Bos taurus; conditions: cattle; for remaining at 3 h, 350 µM: brain synaptosomes, read-out: Stability
[2] = Stability in bovine brain synaptosomes assessed as compound remaining at 0.35 mM incubated for 30 mins by thin layer chromatography analysis; type: ADME, subcellular, Bos taurus; conditions: cattle
[3] = system: Rattus norvegicus; assay: Analgesic activity in Wistar rat assessed as increase in tail flick latency at 0.4 uM/kg administered intranasally and measured upto 120 mins by tail-flick test; type: functional, organism-based
[4] = Acute toxicity in Wistar rat assessed as animal death at 2 uM/kg administered intranasally and measured after 20 mins; conditions: in vivo, inhaled_or_intranasal
[5] = Acute toxicity in Wistar rat assessed as nausea at 2 uM/kg administered intranasally and measured after 20 mins; conditions: in vivo, inhaled_or_intranasal
[6] = Acute toxicity in Wistar rat assessed as animal activity at 2 uM/kg administered intranasally and measured after 20 mins; conditions: in vivo, inhaled_or_intranasal
[7] = Acute toxicity in Wistar rat assessed as sleep at 2 uM/kg administered intranasally and measured after 20 mins; conditions: in vivo, inhaled_or_intranasal
[8] = Acute toxicity in Wistar rat assessed as irritability at 2 uM/kg administered intranasally and measured after 20 mins; conditions: in vivo, inhaled_or_intranasal
[9] = Acute toxicity in Wistar rat assessed as appetite at 2 uM/kg administered intranasally and measured after 20 mins; conditions: in vivo, inhaled_or_intranasal
[10] = Acute toxicity in Wistar rat assessed as heart rate at 2 uM/kg administered intranasally and measured after 20 mins; conditions: in vivo, inhaled_or_intranasal
[11] = Acute toxicity in Wistar rat assessed as arterial pressure at 2 uM/kg administered intranasally and measured after 20 mins; conditions: in vivo, inhaled_or_intranasal
[12] = Acute toxicity in Wistar rat assessed as pathological abnormalities in tissues at 2 uM/kg administered intranasally and measured after 20 mins; conditions: in vivo, inhaled_or_intranasal
[13] = Toxicity in Wistar rat assessed as effect on memory by measuring average distance that has been travelled to previously placed platform at 0.4 uM/kg administered intranasally by Morris water maze test; conditions: in vivo, inhaled_or_intranasal
[14] = Acute toxicity in Wistar rat assessed as pathological abnormalities in organs at 2 uM/kg administered intranasally and measured after 20 mins; conditions: in vivo, inhaled_or_intranasal

## C[C@H](NC(=O)CCN)C(=O)N[C@@H](CCCCN)C(=O)N[C@@H](Cc1ccccc1)C(=O)NCCC(=O)O (H-[βAla]AKF[βAla]-OH)
[1]; 3 h, 350 µM
  Stability: Stable

## CSCC[C@H](NC(=O)[C@H](Cc1ccccc1)NC(=O)CNC(=O)CNC(=O)[C@@H](N)Cc1ccc(O)cc1)C(=O)O
[2]; 0.5 h, 350 µM
  Stability: Unstable
[3]
  Activity: Active

## C[C@H](N)C(=O)N[C@@H](CCCCN)C(=O)N[C@@H](Cc1ccccc1)C(=O)O (H-Ala-Lys-Phe-OH)
[2]; brain synaptosomes, read-out: Stability
  remaining at 0.5 h, 350 µM: 0%

## NCCC(=O)N[C@@H](Cc1ccc(O)cc1)C(=O)NCC(=O)NCC(=O)N[C@@H](Cc1ccccc1)C(N)=O (H-[βAla]YGGF-NH2)
[1]
  remaining at 3 h, 350 µM: 75%
[3]
  Activity: Active
[4]
  Activity: Non-Toxic
[5]
  Activity: Non-Toxic
[6]
  Activity: Non-Toxic
[7]
  Activity: Non-Toxic
[8]
  Activity: Non-Toxic
[9]
  Activity: Non-Toxic
[10]
  Activity: Non-Toxic
[11]
  Activity: Non-Toxic
[12]
  Activity: Non-Toxic
[13]
  Activity: Non-Toxic
[14]
  Activity: Non-Toxic

## CSCC[C@H](NC(=O)[C@H](Cc1ccccc1)NC(=O)CNC(=O)CNC(=O)[C@H](Cc1ccc(O)cc1)NC(=O)CCN)C(=O)NCCC(=O)O (H-[βAla]YGGFM[βAla]-OH)
[1]
  remaining at 3 h, 350 µM: 55%
[3]
  Activity: Active

## NCCC(=O)N[C@@H](Cc1ccc(O)cc1)C(=O)NCC(=O)N[C@@H](Cc1ccccc1)C(N)=O (H-[βAla]YGF-NH2)
[1]
  remaining at 3 h, 350 µM: 75%
[3]
  Activity: inactive
